Assay results reported in publication PMC3480357, “Fragment-Hopping-Based Discovery of a Novel Chemical Series of Proto-Oncogene PIM-1 Kinase Inhibitors” (PLoS ONE, 2012).

Key:
FAK = FAK (Homo sapiens, UniProt Q05397); set-up: method as in PMID 21051136; conditions: 10 µM; average of two data points; cited from earlier work
FGF-R1 = FGF-R1 (Homo sapiens, UniProt P11362); set-up: method as in PMID 21051136; conditions: 10 µM; average of two data points; cited from earlier work
IGF1-R = IGF1-R (Homo sapiens, UniProt P08069); set-up: method as in PMID 21051136; conditions: 10 µM; average of two data points; cited from earlier work
EGF-R = EGF-R (Homo sapiens, UniProt P00533); set-up: method as in PMID 21051136; conditions: 10 µM; average of two data points; cited from earlier work
INS-R [1] = biological target: T1, INS-R (Homo sapiens, UniProt P06213); set-up: method as in PMID 21051136; conditions: 10 µM; average of two data points; cited from earlier work
T1 sequence (P06213 980-1382 limits assumed, species assumed): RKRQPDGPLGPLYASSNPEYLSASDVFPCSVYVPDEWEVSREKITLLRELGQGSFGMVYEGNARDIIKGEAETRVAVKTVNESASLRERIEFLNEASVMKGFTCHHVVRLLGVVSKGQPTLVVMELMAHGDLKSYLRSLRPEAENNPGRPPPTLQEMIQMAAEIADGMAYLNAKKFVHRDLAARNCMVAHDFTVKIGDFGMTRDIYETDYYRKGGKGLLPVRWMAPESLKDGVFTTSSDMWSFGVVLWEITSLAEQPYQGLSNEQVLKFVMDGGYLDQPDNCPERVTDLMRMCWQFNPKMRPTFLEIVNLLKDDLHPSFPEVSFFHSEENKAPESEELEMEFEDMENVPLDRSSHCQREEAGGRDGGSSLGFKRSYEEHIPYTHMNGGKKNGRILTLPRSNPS

ARK5 = biological target: T2, ARK5 (Homo sapiens, UniProt O60285); set-up: method as in PMID 21051136; conditions: 10 µM; average of two data points; cited from earlier work
T2 sequence (O60285 1-661): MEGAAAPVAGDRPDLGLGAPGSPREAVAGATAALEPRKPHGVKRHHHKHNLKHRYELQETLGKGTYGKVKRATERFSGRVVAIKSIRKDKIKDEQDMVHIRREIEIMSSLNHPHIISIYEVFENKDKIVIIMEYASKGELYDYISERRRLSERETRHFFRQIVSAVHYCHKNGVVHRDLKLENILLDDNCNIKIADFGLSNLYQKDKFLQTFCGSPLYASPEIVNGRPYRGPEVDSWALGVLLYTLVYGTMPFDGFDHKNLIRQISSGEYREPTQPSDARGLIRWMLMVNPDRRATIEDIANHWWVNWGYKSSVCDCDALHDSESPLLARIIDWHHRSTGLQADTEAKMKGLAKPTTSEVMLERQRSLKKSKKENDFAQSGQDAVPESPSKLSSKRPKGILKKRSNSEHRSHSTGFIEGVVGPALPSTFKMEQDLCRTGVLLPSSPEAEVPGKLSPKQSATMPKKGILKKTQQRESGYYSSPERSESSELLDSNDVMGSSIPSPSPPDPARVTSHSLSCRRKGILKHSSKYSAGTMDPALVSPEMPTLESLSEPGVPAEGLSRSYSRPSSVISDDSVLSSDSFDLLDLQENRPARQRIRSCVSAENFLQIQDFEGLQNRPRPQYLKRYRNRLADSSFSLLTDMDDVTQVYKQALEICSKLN

MST1 = biological target: T3, MST1 (Homo sapiens, UniProt Q13043); set-up: method as in PMID 21051136; conditions: 10 µM; average of two data points; cited from earlier work
T3 sequence (Q13043 1-487): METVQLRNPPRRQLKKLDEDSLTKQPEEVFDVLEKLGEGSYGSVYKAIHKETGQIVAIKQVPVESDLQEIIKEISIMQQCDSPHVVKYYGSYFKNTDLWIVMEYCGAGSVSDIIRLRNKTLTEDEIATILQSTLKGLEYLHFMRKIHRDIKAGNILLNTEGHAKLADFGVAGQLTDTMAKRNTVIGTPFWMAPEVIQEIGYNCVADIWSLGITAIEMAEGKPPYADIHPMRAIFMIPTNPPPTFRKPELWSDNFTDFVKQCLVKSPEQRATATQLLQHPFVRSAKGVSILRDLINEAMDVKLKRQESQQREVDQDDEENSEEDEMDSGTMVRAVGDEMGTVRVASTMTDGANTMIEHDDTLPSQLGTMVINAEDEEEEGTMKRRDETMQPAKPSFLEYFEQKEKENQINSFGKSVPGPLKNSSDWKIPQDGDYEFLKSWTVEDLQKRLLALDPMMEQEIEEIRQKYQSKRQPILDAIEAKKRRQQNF

CK1-α1 = CK1-α1 (Homo sapiens, UniProt P48729); set-up: method as in PMID 21051136; conditions: 10 µM; average of two data points; cited from earlier work
AKT1 = AKT1 (Homo sapiens, UniProt P31749); set-up: method as in PMID 21051136; conditions: 10 µM; average of two data points; cited from earlier work
Sequence of AKT1 (P31749 whole entry, species assumed): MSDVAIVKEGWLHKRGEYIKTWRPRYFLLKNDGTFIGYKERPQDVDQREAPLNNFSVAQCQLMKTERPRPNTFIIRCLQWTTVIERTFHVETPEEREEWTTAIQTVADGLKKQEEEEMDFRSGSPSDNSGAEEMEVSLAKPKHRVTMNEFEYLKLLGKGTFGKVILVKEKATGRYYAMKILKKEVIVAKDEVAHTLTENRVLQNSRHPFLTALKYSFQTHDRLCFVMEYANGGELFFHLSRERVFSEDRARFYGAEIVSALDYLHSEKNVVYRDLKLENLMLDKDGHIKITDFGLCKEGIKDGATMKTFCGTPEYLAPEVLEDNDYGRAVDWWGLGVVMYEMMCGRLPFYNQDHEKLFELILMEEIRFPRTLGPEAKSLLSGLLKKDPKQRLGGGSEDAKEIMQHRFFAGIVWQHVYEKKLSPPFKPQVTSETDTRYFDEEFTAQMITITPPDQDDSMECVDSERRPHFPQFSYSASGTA

B-RAF-V600E = B-RAF-V600E (Homo sapiens, UniProt P15056, V600E); set-up: method as in PMID 21051136; conditions: 10 µM; average of two data points; cited from earlier work
Sequence of B-RAF-V600E (P15056 whole entry V600E): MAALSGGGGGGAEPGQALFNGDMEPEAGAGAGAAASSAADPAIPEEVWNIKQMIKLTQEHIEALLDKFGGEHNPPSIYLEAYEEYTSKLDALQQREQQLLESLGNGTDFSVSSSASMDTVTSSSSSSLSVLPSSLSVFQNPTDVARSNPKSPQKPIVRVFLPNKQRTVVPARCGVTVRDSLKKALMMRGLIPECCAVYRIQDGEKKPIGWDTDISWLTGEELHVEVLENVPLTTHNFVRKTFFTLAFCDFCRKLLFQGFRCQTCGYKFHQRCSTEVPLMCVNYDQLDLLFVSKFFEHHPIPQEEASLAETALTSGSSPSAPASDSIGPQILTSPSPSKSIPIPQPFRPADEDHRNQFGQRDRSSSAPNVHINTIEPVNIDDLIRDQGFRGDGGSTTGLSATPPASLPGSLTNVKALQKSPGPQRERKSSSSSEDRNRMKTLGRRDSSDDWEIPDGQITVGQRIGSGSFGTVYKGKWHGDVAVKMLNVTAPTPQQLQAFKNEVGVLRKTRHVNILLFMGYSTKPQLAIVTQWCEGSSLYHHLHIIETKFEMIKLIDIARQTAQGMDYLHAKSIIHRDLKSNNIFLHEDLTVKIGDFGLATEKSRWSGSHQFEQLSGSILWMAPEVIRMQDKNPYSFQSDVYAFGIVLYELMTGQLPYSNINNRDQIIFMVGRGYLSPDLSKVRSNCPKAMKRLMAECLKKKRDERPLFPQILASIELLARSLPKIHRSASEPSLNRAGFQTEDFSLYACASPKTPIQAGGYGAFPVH

SGK1 = biological target: T4, SGK1 (Homo sapiens, UniProt O00141); set-up: method as in PMID 21051136; conditions: 10 µM; average of two data points; cited from earlier work
T4 sequence (O00141 1-431): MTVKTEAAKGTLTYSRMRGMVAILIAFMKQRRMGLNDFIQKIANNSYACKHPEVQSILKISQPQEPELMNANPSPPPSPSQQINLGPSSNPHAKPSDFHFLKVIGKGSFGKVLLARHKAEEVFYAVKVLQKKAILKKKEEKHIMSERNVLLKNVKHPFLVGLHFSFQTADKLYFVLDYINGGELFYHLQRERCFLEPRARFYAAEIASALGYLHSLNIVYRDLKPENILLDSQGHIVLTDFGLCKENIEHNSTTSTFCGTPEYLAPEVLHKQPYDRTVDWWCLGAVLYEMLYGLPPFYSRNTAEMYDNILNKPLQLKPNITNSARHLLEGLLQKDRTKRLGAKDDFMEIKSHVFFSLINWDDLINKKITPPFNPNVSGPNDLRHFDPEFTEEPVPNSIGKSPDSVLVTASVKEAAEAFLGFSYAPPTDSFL

JNK1 [2] = biological target: T5, JNK1 (Homo sapiens, UniProt P45983); set-up: method as in PMID 21051136; conditions: 10 µM; average of two data points; cited from earlier work
T5 sequence (P45983 whole entry, species assumed): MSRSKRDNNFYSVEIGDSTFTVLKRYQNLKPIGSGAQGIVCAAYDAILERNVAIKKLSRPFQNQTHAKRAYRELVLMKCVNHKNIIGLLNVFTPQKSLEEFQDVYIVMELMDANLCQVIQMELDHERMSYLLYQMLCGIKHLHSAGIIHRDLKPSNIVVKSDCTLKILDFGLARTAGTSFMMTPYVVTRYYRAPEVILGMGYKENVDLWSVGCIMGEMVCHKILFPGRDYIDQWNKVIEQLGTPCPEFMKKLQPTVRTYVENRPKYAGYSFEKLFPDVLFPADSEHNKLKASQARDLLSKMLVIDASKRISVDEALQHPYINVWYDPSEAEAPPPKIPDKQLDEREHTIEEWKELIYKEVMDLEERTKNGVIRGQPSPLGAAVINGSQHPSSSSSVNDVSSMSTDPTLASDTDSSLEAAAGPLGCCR

PAK1 = PAK1 (Homo sapiens, UniProt Q13153); set-up: method as in PMID 21051136; conditions: 10 µM; average of two data points; cited from earlier work
Sequence of PAK1 (Q13153 whole entry): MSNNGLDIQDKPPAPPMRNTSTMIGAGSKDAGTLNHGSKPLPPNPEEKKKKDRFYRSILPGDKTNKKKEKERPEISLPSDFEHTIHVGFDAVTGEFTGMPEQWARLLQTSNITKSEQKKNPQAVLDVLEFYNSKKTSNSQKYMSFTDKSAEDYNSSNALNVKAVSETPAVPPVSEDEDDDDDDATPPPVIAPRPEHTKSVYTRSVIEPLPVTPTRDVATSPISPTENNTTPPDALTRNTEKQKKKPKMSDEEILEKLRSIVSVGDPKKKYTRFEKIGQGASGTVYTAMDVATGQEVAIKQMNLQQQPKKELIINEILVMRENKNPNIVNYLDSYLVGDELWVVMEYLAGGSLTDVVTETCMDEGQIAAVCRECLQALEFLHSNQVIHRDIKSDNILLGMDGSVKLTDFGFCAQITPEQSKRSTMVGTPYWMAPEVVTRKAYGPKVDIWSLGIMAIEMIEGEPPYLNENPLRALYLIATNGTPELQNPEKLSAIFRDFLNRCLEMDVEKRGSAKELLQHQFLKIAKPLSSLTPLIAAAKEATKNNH

PIM-2 = PIM-2 (Homo sapiens, UniProt Q9P1W9); set-up: method as in PMID 21051136; conditions: cited from earlier work
[3] = set-up: method as in earlier work; conditions: SuperGen press release; cited from earlier work
INS-R [4] = biological target: T1, INS-R; experiment: ProQinase kinase panel, % inhibition at fixed concentration; format: biochemical
Experimental: (§1) Once compounds 7 and 8 were synthesized, a pairwise comparison was performed to strictly evaluate the real impact of this fragment-hopping where imidazopyridazine is replaced by triazolopyridine.

JNK1 [5] = biological target: T5, JNK1; experiment: as above; format: biochemical
Experimental: as §1

hERG = hERG (Homo sapiens, UniProt Q12809); experiment: hERG radioligand binding assay using [3H]-astemizole; conditions: duplicate
Sequence of hERG (Q12809 whole entry): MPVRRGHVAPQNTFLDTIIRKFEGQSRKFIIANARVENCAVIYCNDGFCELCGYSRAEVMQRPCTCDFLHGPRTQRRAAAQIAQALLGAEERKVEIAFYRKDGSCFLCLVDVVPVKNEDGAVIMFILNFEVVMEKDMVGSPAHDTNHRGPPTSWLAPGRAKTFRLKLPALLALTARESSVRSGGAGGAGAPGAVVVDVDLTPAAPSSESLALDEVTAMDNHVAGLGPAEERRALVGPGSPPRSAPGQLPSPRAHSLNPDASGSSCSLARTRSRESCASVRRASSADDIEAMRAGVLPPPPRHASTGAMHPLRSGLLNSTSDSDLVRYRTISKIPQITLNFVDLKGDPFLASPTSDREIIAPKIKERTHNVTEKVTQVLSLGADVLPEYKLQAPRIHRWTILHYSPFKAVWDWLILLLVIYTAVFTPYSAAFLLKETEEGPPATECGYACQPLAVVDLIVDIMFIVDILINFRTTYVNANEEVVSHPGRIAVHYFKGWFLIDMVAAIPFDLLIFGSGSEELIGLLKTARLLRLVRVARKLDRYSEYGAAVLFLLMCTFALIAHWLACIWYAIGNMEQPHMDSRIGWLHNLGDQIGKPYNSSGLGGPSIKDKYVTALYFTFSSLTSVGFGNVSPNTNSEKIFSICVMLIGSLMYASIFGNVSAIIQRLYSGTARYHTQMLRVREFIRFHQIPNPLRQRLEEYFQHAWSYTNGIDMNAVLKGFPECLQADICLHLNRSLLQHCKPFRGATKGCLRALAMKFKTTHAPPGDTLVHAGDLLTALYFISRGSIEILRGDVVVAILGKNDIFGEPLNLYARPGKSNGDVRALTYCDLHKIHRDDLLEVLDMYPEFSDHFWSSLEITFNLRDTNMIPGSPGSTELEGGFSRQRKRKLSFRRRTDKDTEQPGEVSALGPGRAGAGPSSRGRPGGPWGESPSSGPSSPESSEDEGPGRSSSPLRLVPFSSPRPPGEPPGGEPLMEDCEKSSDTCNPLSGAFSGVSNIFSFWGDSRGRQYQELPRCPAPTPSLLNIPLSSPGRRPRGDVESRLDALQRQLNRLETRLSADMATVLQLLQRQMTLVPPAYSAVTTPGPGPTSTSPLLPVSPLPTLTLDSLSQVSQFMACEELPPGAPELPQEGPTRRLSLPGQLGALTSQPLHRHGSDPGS

[6] = compound 7 vs compound 1, 10 µM

Sequence of FAK (Q05397 whole entry, species assumed): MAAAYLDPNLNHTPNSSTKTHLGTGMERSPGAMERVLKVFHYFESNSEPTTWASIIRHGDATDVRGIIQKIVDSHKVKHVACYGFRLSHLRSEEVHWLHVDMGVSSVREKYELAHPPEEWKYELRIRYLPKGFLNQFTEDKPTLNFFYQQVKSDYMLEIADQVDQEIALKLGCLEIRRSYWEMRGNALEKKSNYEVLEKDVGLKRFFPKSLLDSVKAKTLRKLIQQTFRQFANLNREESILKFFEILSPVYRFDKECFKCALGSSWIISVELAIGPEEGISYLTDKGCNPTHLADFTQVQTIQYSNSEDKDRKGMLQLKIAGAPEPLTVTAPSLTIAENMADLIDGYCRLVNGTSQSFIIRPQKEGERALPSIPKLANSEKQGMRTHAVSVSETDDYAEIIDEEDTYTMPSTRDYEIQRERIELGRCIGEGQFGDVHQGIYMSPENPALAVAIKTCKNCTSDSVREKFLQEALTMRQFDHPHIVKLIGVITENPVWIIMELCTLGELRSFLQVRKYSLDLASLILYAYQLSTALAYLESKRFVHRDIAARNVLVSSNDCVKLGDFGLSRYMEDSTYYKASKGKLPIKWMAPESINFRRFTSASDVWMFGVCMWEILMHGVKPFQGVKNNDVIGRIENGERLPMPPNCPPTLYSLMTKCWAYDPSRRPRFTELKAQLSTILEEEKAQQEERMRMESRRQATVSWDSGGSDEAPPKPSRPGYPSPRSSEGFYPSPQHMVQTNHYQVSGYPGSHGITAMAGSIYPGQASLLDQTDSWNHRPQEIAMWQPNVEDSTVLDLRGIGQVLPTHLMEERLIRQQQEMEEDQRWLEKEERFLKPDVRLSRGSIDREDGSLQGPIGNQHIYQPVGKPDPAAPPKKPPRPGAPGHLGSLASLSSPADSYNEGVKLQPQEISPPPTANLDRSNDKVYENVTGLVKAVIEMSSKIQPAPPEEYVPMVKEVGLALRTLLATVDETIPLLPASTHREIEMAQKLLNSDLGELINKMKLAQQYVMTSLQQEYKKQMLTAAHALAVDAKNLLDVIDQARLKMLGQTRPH

What does the source list for `Oc1ccc(-c2cnc3ccc(NCc4ccc(F)cc4)nn23)cc1` [Compound 1]?
FAK percentage of inhibition (FAK): 48%; FGF-R1 percentage of inhibition (FGF-R1): 84%; IGF1-R percentage of inhibition (IGF1-R): 26%; EGF-R percentage of inhibition (EGF-R): 33%; INS-R percentage of inhibition (INS-R [1]): 67%; ARK5 percentage of inhibition (ARK5): 71%; MST1 percentage of inhibition (MST1): 82%; CK1-α1 percentage of inhibition (CK1-α1): 33%; AKT1 percentage of inhibition (AKT1): 0%; B-RAF-V600E percentage of inhibition (B-RAF-V600E): 54%; SGK1 percentage of inhibition (SGK1): 73%; JNK1 percentage of inhibition (JNK1 [2]): 62%; PAK1 percentage of inhibition (PAK1): 7%; IC50 (PIM-2): 0.42 µM

With `CN1CCC(CNc2ccc3ncc(-c4cccc(OC(F)(F)F)c4)n3n2)CC1` [Compound 3, reference compound] as the compound, how does the “cardiac and pharmacokinetic data evaluation in Phase I trial” value [3] read?
The value was “failed to demonstrate a safe therapeutic window”.

What does the source list for `Oc1ccc(-n2nnc3ccc(NCc4ccc(F)cc4)nc32)cc1` [Compound 7, 4-[5-(4-Fluoro-benzylamino)-[1], [2], [3]triazolo[4,5-b]pyridin-3-yl]-phenol]?
INS-R improvement in percentage of inhibition (INS-R [4]; [6]): b (This designation indicates that the improvement in percentage of inhibition was equal or greater than 25%); inhibition at 10 µM (INS-R [4]; inhibitor at 10 µM, average of two data points, read-out: INS-R percentage of inhibition): 32%; JNK1 improvement in percentage of inhibition (JNK1 [5]; [6]): c (This designation indicates that the improvement in percentage of inhibition was equal or greater than 50%); inhibition at 10 µM (JNK1 [5]; inhibitor at 10 µM, average of two data points, read-out: JNK1 percentage of inhibition): 11%

Which IC50 (hERG) does the source give for `CN1CCC(CNc2ccc3nnn(-c4cccc(OC(F)(F)F)c4)c3n2)CC1` [Compound 8, (1-Methyl-piperidin-4-ylmethyl)-[3-(3-trifluoromethoxy-phenyl)-3H-[1], [2], [3]triazolo[4,5-b]pyridin-5-yl]-amine] here?
The IC50 was 5.4 µM.
